Test results reported in patent publication US4845121A, “Aci-reductone compounds belonging to the 6,7-disubstituted-3,4-dihydro benzopyan-2H-one class having antiaggregatory properties” (The Ohio State University Research Foundation, priority 1986, dated 1989).
Entries after “also recorded” stand apart in the source; their conditions may differ.

Columns and labels:
[1] = tested on: hyper-aggregatory responses to inducers of the prostaglandin-dependent pathway; details: hyperlipidemic patients; Vargaftig et al. (1981); cited from earlier work
[2] = tested on: human platelets (collagen-induced serotonin secretion); details: Witiak et al., J. Med Chem. 25: 90 (1982); cited from earlier work
[3] = tested on: human platelets (collagen-induced aggregation); details: literature; cited from earlier work
[4] = tested on: human platelets (arachidonic acid-induced aggregation); assay: Arachidonic acid-induced human platelet aggregation (turbidometric); format: cell-based; details: for IC50: Homo sapiens, Platelet, inhibitor 1 min before AA (0.2-1 mM), mean ± S.E.M., n = 3-9 donors; for fold more potent inhibitor of AA-induced aggregation: implied versus clofibric acid; for antiaggregatory potency relative to clofibric acid (in words): prostaglandin-dependent pathway of platelet activation
Protocol: (§1) The antiaggregatory action of the compounds of the present invention was determined using the following procedure: ADP and AA were obtained from Sigma Chemical Co., (St. Louis, MO). [^14 C]-Serotonin (57 mCi/mmol) and [^3 H]-AA (210 Ci/mmol) were supplied by Amersham (Arlington Heights, IL). U46619 (15S-hydroxy-11α,9α-epoxymethano-prosta-5z,13E-dienoic acid) was purchased from Upjohn Diagnostics (Kalamazoo, MI). Blood was collected from normal human volunteers who reported to be free of medication for at least 10 days prior to blood collection. Washed platelets were prepared and suspended in a modified Tyrode's solution, pH 7.4 as described in Navran, S. S., et al., Thromb. […] The platelet count was adjusted to 3×10^8 /ml for aggregation, secretion and biochemical studies.
(§2) Inhibitors were added one minute prior to induction of platelet activation. Secretion of the contests of platelet dense granules was measured by monitoring the release of radioactivity from platelets prelabeled with [^14 C]-serotonin. […] To study the release of AA from platelet phospholipids, washed platelets were incubated with [^3 H]-AA (3.6 mCi/10^9 platelets) for two hours at room temperature prior to the final centrifugation and resuspension of the washing procedure. Released [^3 H]-AA was quantified from supernatants of stimulated platelet samples in a manner identical to the determination of serotonin secretion.

[5] = tested on: human platelets (arachidonic acid-induced serotonin secretion); assay: Arachidonic acid-induced [14C]-serotonin secretion; format: cell-based; details: for IC50: Homo sapiens, Platelet, inhibitor 1 min before AA (0.2-1 mM), mean ± S.E.M., n = 3-9 donors
Protocol: as §1, §2

[6] = tested on: human platelets (U46619, thromboxane A2 agonist-induced aggregation); assay: U46619-induced human platelet aggregation (turbidometric, + ASA); format: cell-based; details: for IC50: Homo sapiens, Platelet, inhibitor 1 min before U46619 (0.3 uM), aspirin 1 mM added, mean ± S.E.M., n = 3-9 donors
Protocol: as §1, §2

[7] = tested on: human platelets (thrombin-induced [3H]-AA release); assay: Thrombin-induced [3H]-arachidonic acid release; format: cell-based; details: for IC50: Homo sapiens, Platelet, inhibitor 1 min before thrombin (0.5 U/ml), terminated at 4 min, 3-5 donors; for inhibition of AA release (in words): thrombin-induced AA release / release from platelet membrane phospholipids
Protocol: (§3) The antiaggregatory action of the compounds of the present invention was determined using the following procedure: ADP and AA were obtained from Sigma Chemical Co., (St. Louis, MO). [^14 C]-Serotonin (57 mCi/mmol) and [^3 H]-AA (210 Ci/mmol) were supplied by Amersham (Arlington Heights, IL). U46619 (15S-hydroxy-11α,9α-epoxymethano-prosta-5z,13E-dienoic acid) was purchased from Upjohn Diagnostics (Kalamazoo, MI). Blood was collected from normal human volunteers who reported to be free of medication for at least 10 days prior to blood collection. Washed platelets were prepared and suspended in a modified Tyrode's solution, pH 7.4 as described in Navran, S. S., et al., Thromb. Res., 33: 449-510 (1984). The platelet count was adjusted to 3×10^8 /ml for aggregation, secretion and biochemical studies.
Platelet aggregation studies were performed according to the turbidometric method of Born, as described in Nature, 194: 927-929 (1962), in a Payton Model 600 dual channel aggregometer interfaced to an Apple microcomputer for acquistion, quantitation, presentation, and management of platelet aggregation data, as described in Huzoor-Akbar, et al., 32 Thromb. Res., 335-341 (1983). Inhibitors were added one minute prior to induction of platelet activation. Secretion of the contests of platelet dense granules was measured by monitoring the release of radioactivity from platelets prelabeled with [^14 C]-serotonin. Malondialdehyde formation induced by AA was determined as described in Huzoor-Akar et al., Biochem Pharmacol., 30: 2013-2020 (1981). To study the release of AA from platelet phospholipids, washed platelets were incubated with [^3 H]-AA (3.6 mCi/10^9 platelets) for two hours at room temperature prior to the final centrifugation and resuspension of the washing procedure. Released [^3 H]-AA was quantified from supernatants of stimulated platelet samples in a manner identical to the determination of serotonin secretion.
The reactions were terminated at 4 minutes and [^3 H]-AA was sampled from platelet supernatants and analyzed as described herein. Data are averages ± S.E.M. from 3-5 donors.

[8] = tested on: human platelets (U46619-induced serotonin secretion); assay: U46619-induced [14C]-serotonin secretion (+ ASA); format: cell-based; details: for IC50: Homo sapiens, Platelet, inhibitor 1 min before U46619 (0.3 uM), aspirin 1 mM added, mean ± S.E.M., n = 3-9 donors; for fold more potent than clofibric acid as inhibitor of U46619-evoked serotonin secretion: versus clofibric acid 1
Protocol: as §1, §2

[9] = tested on: human platelets (ADP-induced serotonin secretion); assay: ADP-induced [14C]-serotonin secretion; format: cell-based; details: Platelet, inhibitor 1 min before ADP (1-5 uM), mean ± S.E.M., n = 3-9 donors
Protocol: as §1
Inhibitors were added one minute prior to induction of platelet activation. Secretion of the contests of platelet dense granules was measured by monitoring the release of radioactivity from platelets prelabeled with [^14 C]-serotonin. […] Released [^3 H]-AA was quantified from supernatants of stimulated platelet samples in a manner identical to the determination of serotonin secretion.

[10] = tested on: human platelets (ADP-induced aggregation); assay: ADP-induced human platelet aggregation (turbidometric, secondary aggregation); format: cell-based; details: for rank order of potency, aggregation and serotonin secretory responses to ADP and AA: aggregation and serotonin secretion together; for IC50: Homo sapiens, Platelet, inhibitor 1 min before ADP (1-5 uM), secondary aggregation only, mean ± S.E.M., n = 3-9 donors; for fold more potent than clofibric acid as inhibitor of ADP-induced platelet activation: versus clofibric acid 1
Protocol: as §1, §2

[11] = tested on: human platelets (AA-induced MDA formation); assay: AA-induced malondialdehyde (MDA) formation; format: cell-based; details: Platelet, mean+S.E., N=3-5
Protocol: as §3, with “The platelet count was adjusted to 3×10^8 /ml for aggregation, secretion and biochemical studies.” left out
Platelet aggregation studies were performed according to the turbidometric method of Born, as described in Nature, 194: 927-929 (1962), in a Payton Model 600 dual channel aggregometer interfaced to an Apple microcomputer for acquistion, quantitation, presentation, and management of platelet aggregation data, as described in Huzoor-Akbar, et al., 32 Thromb. […] Secretion of the contests of platelet dense granules was measured by monitoring the release of radioactivity from platelets prelabeled with [^14 C]-serotonin. Malondialdehyde formation induced by AA was determined as described in Huzoor-Akar et al., Biochem Pharmacol., 30: 2013-2020 (1981). […]

IC50 [4] [µM]	IC50 [5] [µM]	IC50 [6] [µM]	IC50 [7] [µM]	IC50 [8] [µM]	IC50 [9] [µM]	IC50 [10] [µM]	SMILES	inhibition of AA-induced aggregation (in words) [4]	rank order of inhibitory potency, AA-induced aggregation [4]	fold more potent inhibitor of AA-induced aggregation [4]	antiaggregatory potency relative to clofibric acid (in words) [4]	rank order of inhibitory potency, AA-induced serotonin secretion [5]	inhibition of U46619-induced aggregation/responses (in words) [6]	rank order of inhibitory potency, thrombin-induced AA release [7]	inhibition of AA release (in words) [7]	rank order of inhibitory potency against U46619-induced serotonin secretion [8]	fold more potent than clofibric acid as inhibitor of U46619-evoked serotonin secretion [8]	inhibition of (secondary wave of) ADP-induced aggregation (in words) [10]	rank order of potency, aggregation and serotonin secretory responses to ADP and AA [10]	fold more potent than clofibric acid as inhibitor of ADP-induced platelet activation [10]	other results
							CCOC(=O)C(C)(C)Oc1ccc(Cl)cc1 [clofibrate]														effect of therapy on hyper-aggregatory responses (in words) [1]: reverses the hyper-aggregatory responses to inducers of the prostaglandin-dependent pathway
							O=C1OC(c2ccc(Cl)cc2)C(O)=C1O (stereo not drawn) [compound 2, 2-hydroxytetronic acid aci-reductone]														inhibition of collagen-induced secretion of [14C]-serotonin (in words) [2]: in a concentration-dependent manner at equivalent doses; inhibition of collagen-induced human platelet aggregation/activation (in words) [3]: inhibit collagen-inducedhuman platelet aggregation
739 ± 86	814 ± 90	1500 ± 160	432	2380 ± 394	466 ± 90	363 ± 159	O=c1oc2ccc(Cl)cc2c(O)c1O [compound IX, 6-chloro-3,4-dihydroxy-2H-1-benzopyran-2-one]	potent inhibitor of thrombin-induced AA release and ADP- or AA-induced aggregation; also recorded: concentration-dependent inhibition	IX>X>1	approximately 4 fold	more potent antiaggregatory agents than clofibric acid	IX>X>1	inhibits U46619-induced responses in human platelets; also recorded: concentration-dependent inhibitors of U46619-induced aggregation	IX>>X=1; also recorded: IX>1=X	blocks AA release from platelet membrane phospholipids; also recorded: potent inhibitor of thrombin-induced AA release	dihydrobenzofuran>benzopyranone>clofibric acid	about 2 fold	potent inhibitor of thrombin-induced AA release and ADP- or AA-induced aggregation; also recorded: concentration-dependent inhibition	benzopyranone analogue>2,3-dihydrobenzofuran analog>clofibric acid	about 2 fold	inhibition of AA metabolism (in words) ([4]; inferred from AA-mediated versus U46619 responses): acts as an inhibitor of AA metabolism
851 ± 85	1010 ± 142	1480 ± 277	3870	1440 ± 239	419 ± 90	533 ± 71	O=C(O)C1Cc2cc(Cl)ccc2O1 (stereo not drawn) [compound X, 5-chloro-2,3-dihydrobenzofuran-2-carboxylic acid]	concentration-dependent inhibition	IX>X>1	approximately 4 fold	more potent antiaggregatory agents than clofibric acid	IX>X>1	antagonizes the proaggregatory actions of the thromboxane A2 agonist U46619; also recorded: concentration-dependent inhibitors of U46619-induced aggregation	IX>>X=1; also recorded: IX>1=X	blocks the release and subsequent metabolism of AA	dihydrobenzofuran>benzopyranone>clofibric acid	about 2 fold	concentration-dependent inhibition	benzopyranone analogue>2,3-dihydrobenzofuran analog>clofibric acid	about 2 fold	IC50 [11]: 908 ± 137 µM
